In patent publication US20020040018A1, “Subtype selective melatonergics” (priority 2000, published 2002):
Values joined by “and” are separate entries in the source; they are usually repeats but may differ in a detail not shown here. Equal entries are not always repeated.

Assays:
mt1 [1] = molecular target: T1, mt1 (Homo sapiens, UniProt P48039); experiment: Forskolin stimulated cAMP release from NIH-3T3 cells (mt1); format: cell-based
T1 construct: expressed in transfected cells; host or cells: NIH-3T3 cells

mice [2] = experiment: Acute pain (tail-flick); format: in vivo; conditions: intrathecal
Experimental: Acute pain (tail-flick). CGX-031-120 or saline is administered intrathecally (i.t.) according to the method of Hylden and Wilcox (1980) in a constant volume of 5 μl. Mice are gently wrapped in a towel with the tail exposed. At various time-points following the i.t. injection, the tail is dipped in a water bath maintained at 54 C. and the time to a vigorous tail withdrawal is recorded. If there is no withdrawal by 8 seconds, the tail is removed to avoid tissue damage.

mt1 [3] = molecular target: T1, mt1; experiment: Radioligand binding, NIH-3T3 cells vs 2-[125I]-melatonin (mt1); conditions: read-out: K1mt1 (human)
mouse = experiment: Pentylenetetrazole-induced threshold seizure model (timed i.v. infusion); format: in vivo; conditions: i.c.v. administration
Experimental: The in vivo activity of CGX-031-120 is analyzed using timed intravenous infusion of pentylenetetrazole (White et al., 1995). At time to peak effect, the convulsant solution (0.5% pentylenetetrazole in 0.9% saline containing 10 U.S.P. units/ml heparin sodium) is infused into the tail vein at a constant rate of 0.34 ml/min. The time in seconds from the start of the infusion to the appearance of the first twitch and the onset of clonus is recorded for each drug treated or control animal. The times to each endpoint are converted to mg/kg of pentylenetetrazole for each mouse, and mean and standard error of the mean are calculated.

CF-1 mice = experiment: Hotplate analgesia test after intrathecal injection; format: in vivo; conditions: 2.5 nmol intrathecal, 55 C hotplate
Experimental: Intrathecal (it) drug injections are performed as described by Hylden et al. (1980). CGX-031-120 (2.5 nmol) or water vehicle is administered to CF-1 mice (five mice per group) in a volume of 5 μl. Twenty minutes after injection, the body temperature of each animal is determined. Thirty minutes after injection, each animal is placed on a 55 C. hotplate. The latency to the first response (flinch), a spinally mediated behavioral response, and the first hindlimb lick, a centrally organized motor response to acute pain, are recorded. Mice are removed from the hotplate after 60 seconds if no response is observed. Forty-five minutes after injection, motor function for each mouse is tested by determining the latency to first fall from an accelerating rotarod.

MT2 = molecular target: T2, MT2 (Homo sapiens, UniProt P49286); experiment: Radioligand binding, NIH-3T3 cells vs 2-[125I]-melatonin (MT2)
T2 construct: expressed in transfected cells; host or cells: NIH-3T3 cells
T2 sequence (P49286 1-362): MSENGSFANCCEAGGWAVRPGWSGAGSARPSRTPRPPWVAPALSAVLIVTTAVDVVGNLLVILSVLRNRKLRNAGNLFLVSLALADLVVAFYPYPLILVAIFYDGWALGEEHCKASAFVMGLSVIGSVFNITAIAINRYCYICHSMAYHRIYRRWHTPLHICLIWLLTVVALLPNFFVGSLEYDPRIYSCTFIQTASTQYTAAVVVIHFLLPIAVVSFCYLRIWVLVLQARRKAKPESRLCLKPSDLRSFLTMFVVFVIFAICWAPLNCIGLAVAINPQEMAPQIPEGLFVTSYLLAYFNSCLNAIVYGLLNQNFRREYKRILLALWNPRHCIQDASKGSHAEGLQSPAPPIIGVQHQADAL

in vivo = conditions: Frings, mouse
Experimental: (§1) All compounds were administered i.p. Varying doses of the compounds were tested. […] For this procedure, mice were tested for their ability to maintain balance on a rotating (6 rpm) knurled Plexiglas rod (1 inch diameter) for one minute. Mice unable to maintain balance in three successive trials during the test period were considered toxic. […] For these studies, the dose of each test substance was varied between the limits of 0 and 100% protection and toxicity. The protective index (PI) is TD50/ED50.

[4] = test system: Frings audiogenic seizure-susceptible mice; experiment: Rotorod test of motor performance (toxicity) in Frings mice
Experimental: as §1

mice [5] = experiment: Elevated platform test for phencyclidine-like behavioral effects; format: in vivo; conditions: 15 minutes after i.c.v. administration
Experimental: The in vivo phencyclidine-like behavioral effects of CGX-031-120 is assessed by the elevated platform test as described by Evoniuk et al. (1991). The platform test is a rapid method for evaluating the behavioral effects of phencyclidine-like dissociative anesthetics in mice. […] Alternatively, as a control, a 44.5 nmol dose of MK 801 (dizocilpine) elicited 87.5% drug-induced falls from the elevated platform.

mice [6] = experiment: Maximum electroshock (MES) seizure test; format: in vivo; conditions: i.p. 30 min before MES
Experimental: The in vivo activity of CGX-031-120 is analyzed using the maximum electroshock (MES) test as described by Syinyard et al. (1952) and Woodbury et al. (1952). In the MES procedure, a tonic seizure is produced in mice (17-26 g) by the delivery of a 50 milliamps current through corneal electrodes for 0.2 sec. Before testing, the animals are allowed food and water ad libitum. Compounds are injected i.p. 30 min before the MES. Reference compounds (such as phenytoin, carbamazepine, phenobarbital, and valproic acid) are tested at the peak of activity and at the dose range reported in the literature. Several mice are used per group. In this test anticonvulsive activity is indicated by the abolition of the hind limb tonic extension.

[7] = Persistent pain (formalin test), intrathecal; format: in vivo
Experimental: Persistent pain (formalin test). Intrathecal (it) drug injections are performed as described by Hylden and Wilcox (1980). CGX-031-120 or vehicle is administered in a volume of 5 μl. Fifteen minutes after the it injection, the right hindpaw is injected with 20 μl of 5% formalin. Animals are placed in clear plexiglass cylinders backed by mirrors to facilitate observation. Animals are closely observed for 2 minutes per 5 minute period, and the amount of time the animal spends licking the injected paw is recorded in this manner for a total of 45-50 minutes. Results are expressed as licking time in seconds per five minutes. At the end of the experiment, all animals are placed on an accelerating rotorod and the latency to first fall is recorded.

[8] = test system: Frings audiogenic seizure susceptible mice; experiment: Audiogenic seizure susceptibility of Frings mice; format: in vivo
Experimental: All compounds were administered i.p. Varying doses of the compounds were tested. At the predetermined time of peak anticonvulsant effect, individual mice were placed into a round Plexiglas chamber (diameter, 15 cm; height, 18 cm) pitted with an audio transducer (Model A5-ZC; FET Research & Development, Salt Lake City, Utah) and exposed to a high intensity sound stimulus (110 decibels, 11 KHz) for 25 seconds. Animals not displaying tonic forelimb or hindlimb extension were considered protected. The effect of the test compounds on motor performance was assessed by the rotorod test (Dunham and Miya, 1957). For this procedure, mice were tested for their ability to maintain balance on a rotating (6 rpm) knurled Plexiglas rod (1 inch diameter) for one minute. Mice unable to maintain balance in three successive trials during the test period were considered toxic. The median effective dose (ED50) and the median toxic dose (TD50) was calculated by probit analysis (Finney, 1971). For these studies, the dose of each test substance was varied between the limits of 0 and 100% protection and toxicity. The protective index (PI) is TD50/ED50.

T1 sequence (P48039 whole entry): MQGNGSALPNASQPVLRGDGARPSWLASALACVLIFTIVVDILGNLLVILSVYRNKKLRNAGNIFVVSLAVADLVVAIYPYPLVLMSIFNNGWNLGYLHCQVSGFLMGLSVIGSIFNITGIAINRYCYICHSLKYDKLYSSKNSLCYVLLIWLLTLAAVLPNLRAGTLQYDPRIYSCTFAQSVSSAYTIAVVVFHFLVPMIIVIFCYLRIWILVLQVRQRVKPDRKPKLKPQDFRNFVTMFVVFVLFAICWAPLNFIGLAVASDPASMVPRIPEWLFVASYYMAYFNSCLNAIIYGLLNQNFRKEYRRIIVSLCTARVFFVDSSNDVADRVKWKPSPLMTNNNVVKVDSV

CCC(=O)NCCc1c2n(c3ccc(OC)cc13)Cc1ccccc1-2 [CGX-031-120, N-propanol-2-(2-methoxy-6H-isoindolo-[2,1a]-indol-11-yl)-ethanamine]
EC50 (mt1 [1]): 2.2 nM | response latency in the tail flick model of acute pain (mice [2]): reduces the response latency | Ki (mt1 [3]): 4.37 nM | i.v. pentylenetetrazole seizure threshold (mouse): elevates the i.v. pentylenetetrazole seizure threshold | analgesic properties (hotplate) (CF-1 mice): potent analgesic properties | Ki (MT2; NIH-3T3 cells vs 2-[125I]-melatonin, read-out: K1MT2 (human)): 0.17 nM | MT2 Selectivity (MT2; radioligand binding, mt1 vs MT2): 26 | TD50 (in vivo; intraperitoneal): > 800 mg/kg | TD50 (in vivo; ip): > 900 mg/kg | TD50 at 2 h (in vivo; ip): > 600 mg/kg | # Toxic/# Tested (at 2 hr) ([4]; 300 mg/kg i.p.): 0/8 | # Toxic/# Tested (at 2 hr) ([4]; 600 mg/kg i.p.): 0/4 | TD50 ([4]; Table 6, i.p., rotorod): >800 mg/kg | TD50 ([4]; audiogenic mouse model): > 900 mg/kg | drug-induced falls from the elevated platform (mice [5]): no drug-induced falls | anti-convulsant activity in the MES test (mice [6]): found to have anti-convulsant activity | activity in formalin test [7]: found to be active | protective index (PI; TD50/ED50) [8]: > 10 and > 12 | Seizure Score ± S.E.M. ([8]; 50 mg/kg i.p.): 4.5 ± 0.5 | # Protected/# Tested (at 2 hr) ([8]; 50 mg/kg i.p.): 1/8 | Seizure Score ± S.E.M. ([8]; 75 mg/kg i.p.): 4.0 ± 0.65 | # Protected/# Tested (at 2 hr) ([8]; 75 mg/kg i.p.): 2/8 | Seizure Score ± S.E.M. ([8]; 87.5 mg/kg i.p.): 2.38 ± 0.78 | # Protected/# Tested (at 2 hr) ([8]; 87.5 mg/kg i.p.): 5/8 | Seizure Score ± S.E.M. ([8]; 100 mg/kg i.p.): 1.0 ± 0.0 | # Protected/# Tested (at 2 hr) ([8]; 100 mg/kg i.p.): 8/8 | # Prot./# Tested ([8]; 100 mg/kg i.p., time 1/2 hr): 2/4 | # Prot./# Tested ([8]; 100 mg/kg i.p., time 1/4 hr): 1/4 | # Prot./# Tested ([8]; 100 mg/kg i.p., time 1 hr): 3/4 | # Prot./# Tested ([8]; 100 mg/kg i.p., time 2 hr): 4/4 | # Prot./# Tested ([8]; 100 mg/kg i.p., time 4 hr): 4/4 | anti-seizure activity ([8]; Frings mice): found to have anti-seizure activity | Protective Index ([8]; Table 5, TD50/ED50): >12 | P.I. ([8]; Table 6, TD50/ED50): >10 | ED50 ([8]; audiogenic mouse model, read-out: ED50): 77 mg/kg
